One test concerns the target T1, Aurora-2 (Homo sapiens, UniProt O14965).
T1 sequence (O14965 1-403): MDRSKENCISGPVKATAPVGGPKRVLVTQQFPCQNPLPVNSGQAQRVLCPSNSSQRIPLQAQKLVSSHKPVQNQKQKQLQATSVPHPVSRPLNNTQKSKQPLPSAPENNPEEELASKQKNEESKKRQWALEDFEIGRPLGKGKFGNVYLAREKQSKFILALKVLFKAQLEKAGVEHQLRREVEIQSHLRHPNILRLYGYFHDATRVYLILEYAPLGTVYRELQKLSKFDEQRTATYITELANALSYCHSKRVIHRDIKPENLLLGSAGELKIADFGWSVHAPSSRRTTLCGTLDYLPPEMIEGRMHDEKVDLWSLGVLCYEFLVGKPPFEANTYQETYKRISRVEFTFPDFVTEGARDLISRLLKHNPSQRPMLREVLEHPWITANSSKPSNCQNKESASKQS
As to the kind of experiment: Inhibition assay of Aurora-2 activity (SPA technology). The class given is biochemical. As for the experimental part:
The inhibiting activity and the potency of selected compounds is determined through a method of assay based on the use of the SPA technology (Amersham Pharmacia Biotech).
The assay consists of the transfer of radioactivity labelled phosphate moiety by the kinase to a biotinylated substrate. The resulting 33P-labelled biotinylated product is allowed to bind to streptavidin-coated SPA beads (biotin capacity 130 pmol/mg), and light emitted was measured in a scintillation counter.
Inhibition Assay of Aurora-2 Activity
After 60 minutes at room temperature incubation, reaction was stopped and biotinylated peptide captured by adding 100 μl of bead suspension.
Stratification: 100 μl of CsCl2 5 M were added to each well and let stand 4 hour before radioactivity was counted in the Top-Count instrument.
Experimental data were analyzed by the computer program GraphPad Prizm using the four parameter logistic equation: y=bottom+(top−bottom)/(1+10^((logIC50−x)*slope)) where x is the logarithm of the inhibitor concentration, y is the response; y starts at bottom and goes to top with a sigmoid shape.

For test [1], the system named is human colon cancer cell line HCT-116. As to the kind of experiment: In vitro cell proliferation assay. To be noted: HCT-116, 72 hours of treatment, cell count, read-out: Cell Antiproliferation IC50. It is filed as cell-based. As for the experimental part:
The compounds of the invention were further tested, in vitro, to assess the anti-proliferative effect onto cell cultures.
In Vitro Cell Proliferation Assay
The human colon cancer cell line HCT-116 was seeded at 5000 cells/cm2 in 24 wells plate (Costar) using F12 medium (Gibco) supplemented with 10% FCS (EuroClone, Italy) 2 mM L-glutamine and 1% penicillin/streptomycin and maintained at 37° C., 5% CO2 and 96% relative humidity. The following day, plates were treated in duplicates with 5 ul of an appropriate dilution of compounds starting from a 10 mM stock in DMSO. Two untreated control wells were included in each plate. After 72 hours of treatment, medium was withdrawn and cells detached from each well using 0.5 mL of 0.05% (w/v) Trypsin, 0.02% (w/v) EDTA (Gibco). Samples were diluted with 9.5 mL of Isoton (Coulter) and counted using a Multisizer 3 cell counter (Beckman Coulter). Data were evaluated as percent of the control wells: % of CTR=(Treated−Blank)/(Control−Blank).
IC50 values were calculated by LSW/Data Analysis using Microsoft Excel sigmoidal curve fitting.

Where [2] appears, read: SPA assay, 10 μM ATP, 60 minutes at room temperature, read-out: Aurora-2 inhibition IC50.
[3] abbreviates: screened according to the methods of the pharmacology section, read-out: IC50 values for Aurora-2 inhibition.

Like-named read-outs stand apart in the source and are kept apart here.

With `C[C@@H](NC(=O)c1cc2c(NC(=O)c3ccc(N4CCOCC4)cc3)n[nH]c2s1)c1ccc(F)cc1` [Compound 3, N-[(1R)-1-(4-fluorophenyl)ethyl]-3-[(4-morpholin-4-ylbenzoyl)amino]-1H-thieno[2,3-c]pyrazole-5-carboxamide], the figures for the IC50 (on Aurora-2 (setting [2]); at Aurora-2 (setting [3]); in test [1]) were 6 nM, < 20 nM and 35 nM, respectively.

Consider `C[C@@H](NC(=O)c1cc2c(NC(=O)c3ccc(N4CCN(C)CC4)cc3)n[nH]c2s1)c1ccccc1` [Compound 36, 3-{[4-(4-methylpiperazin-1-yl)benzoyl]amino}-N-[(1R)-1-phenylethyl]-1H-thieno[2,3-c]pyrazole-5-carboxamide], for which the IC50 in test [1] was found to be 5 nM.

As to `O=C(Nc1n[nH]c2sc(C(=O)NC3(c4ccccc4)CC3)cc12)c1ccc(N2CCOCC2)cc1` [Compound 2, 3-[(4-morpholin-4-ylbenzoyl)amino]-N-(1-phenylcyclopropyl)-1H-thieno[2,3-c]pyrazole-5-carboxamide], the IC50 is 3 nM at Aurora-2 (setting [2]), < 20 nM at Aurora-2 (setting [3]) and 23 nM in test [1].

For the molecule `CC(C)(NC(=O)c1cc2c(NC(=O)c3ccc(N4CCOCC4)cc3)n[nH]c2s1)c1ccccc1` [Compound 1, N-(1-methyl-1-phenylethyl)-3-[(4-morpholin-4-ylbenzoyl)amino]-1H-thieno[2,3-c]pyrazole-5-carboxamide], the IC50 at Aurora-2 (setting [2]) is 5 nM; at Aurora-2 (setting [3]), < 20 nM; in test [1], 6 nM.

As for `CC(C)(NC(=O)c1cc2c(NC(=O)c3cccs3)n[nH]c2s1)c1ccccc1` [Compound 16, N-(1-methyl-1-phenylethyl)-3-[(thien-2-ylcarbonyl)amino]-1H-thieno[2,3-c]pyrazole-5-carboxamide], the IC50 at Aurora-2 (setting [2]) is 3 nM; at Aurora-2 (setting [3]), < 20 nM; in test [1] it was 56 nM.

Regarding `CN1CCN(c2ccc(C(=O)Nc3n[nH]c4sc(C(=O)NC(C)(C)c5ccccc5)cc34)cc2)CC1` [Compound 29, N-(1-methyl-1-phenylethyl)-3-{[4-(4-methylpiperazin-1-yl)benzoyl]amino}-1H-thieno[2,3-c]pyrazole-5-carboxamide], the IC50 at Aurora-2 (setting [2]) was 1 nM; at Aurora-2 (setting [3]), < 20 nM; in test [1], 2 nM.

As for `O=C(Nc1n[nH]c2sc(C(=O)N[C@H](CN3CCCC3)c3ccccc3)cc12)c1ccc(N2CCOCC2)cc1` [Compound 5, 3-[(4-morpholin-4-ylbenzoyl)amino]-N-[(1S)-1-phenyl-2-pyrrolidin-1-ylethyl]-1H-thieno[2,3-c]pyrazole-5-carboxamide], the IC50 was 9 nM on Aurora-2 (setting [2]), < 20 nM on Aurora-2 (setting [3]) and 30 nM in test [1].

On to `CC(C)(NC(=O)c1cc2c(NC(=O)c3ccc(CN4CCCC4)cc3)n[nH]c2s1)c1ccc(F)cc1` [Compound 58, 3-(4-Pyrrolidin-1-ylmethyl-benzoylamino)-1H-thieno[2,3-c]pyrazole-5-carboxylic acid [1-(4-fluoro-phenyl)-1-methyl-ethyl]-amide], for which, on Aurora-2 (setting [3]), the IC50 was < 20 nM.

`CC[C@@H](NC(=O)c1cc2c(NC(=O)c3ccc(F)cc3)n[nH]c2s1)c1ccccc1` [Compound 9, 3-[(4-fluorobenzoyl)amino]-N-[(1R)-1-phenylpropyl]-1H-thieno[2,3-c]pyrazole-5-carboxamide]: the IC50 on Aurora-2 (setting [3]) was < 20 nM.

Take `CN1CCN(Cc2ccc(C(=O)Nc3n[nH]c4sc(C(=O)NC(C)(C)c5ccccc5)cc34)cc2)CC1` [Compound 27, N-(1-methyl-1-phenylethyl)-3-({4-[(4-methylpiperazin-1-yl)methyl]benzoyl}amino)-1H-thieno[2,3-c]pyrazole-5-carboxamide]: at Aurora-2 (setting [3]), the IC50 is < 20 nM.

With `CN1CCC(Oc2ccc(C(=O)Nc3n[nH]c4sc(C(=O)NC(C)(C)c5ccccc5)cc34)cc2)CC1` [Compound 25, N-(1-methyl-1-phenylethyl)-3-({4-[(1-methylpiperidin-4-yl)oxy]benzoyl}amino)-1H-thieno[2,3-c]pyrazole-5-carboxamide], the IC50 at Aurora-2 (setting [3]) is < 20 nM.

As to `O=C(Nc1n[nH]c2sc(C(=O)NC3(c4ccccc4)CCCC3)cc12)c1cccs1` [Compound 122, 3-[(Thiophene-2-carbonyl)-amino]-1H-thieno[2,3-c]pyrazole-5-carboxylic acid (1-phenyl-cyclopentyl)-amide], the IC50 at Aurora-2 (setting [3]) was < 20 nM.

Consider `COc1ccc(C(=O)Nc2n[nH]c3sc(C(=O)NC4(c5ccccc5)CC4)cc23)cc1` [Compound 134, 3-(4-Methoxy-benzoylamino)-1H-thieno[2,3-c]pyrazole-5-carboxylic acid (1-phenyl-cyclopropyl)-amide], for which, on Aurora-2 (setting [3]), the IC50 was < 20 nM.

For the molecule `CN(C)CCOc1ccc(C(=O)Nc2n[nH]c3sc(C(=O)NC(C)(C)c4ccccc4F)cc23)cc1` [Compound 126, 3-[4-(2-Dimethylamino-ethoxy)-benzoylamino]-1H-thieno[2,3-c]pyrazole-5-carboxylic acid [1-(2-fluoro-phenyl)-1-methyl-ethyl]-amide], the IC50 on Aurora-2 (setting [3]) was < 20 nM.

`CC[C@@H](NC(=O)c1cc2c(NC(=O)c3ccc(N4CCN(C)CC4)cc3)n[nH]c2s1)c1ccccc1` [Compound 30, 3-{[4-(4-methylpiperazin-1-yl)benzoyl]amino}-N-[(1R)-1-phenylpropyl]-1H-thieno[2,3-c]pyrazole-5-carboxamide]: the IC50 at Aurora-2 (setting [3]) was < 20 nM.

On to `O=C(Nc1n[nH]c2sc(C(=O)NCc3ccccc3)cc12)c1ccc(N2CCOCC2)cc1` [Reference compound, N-benzyl-3-[(4-morpholin-4-ylbenzoyl)amino]-1H-thieno[2,3-c]pyrazole-5-carboxamide, reference compound], for which the values for the IC50 (on Aurora-2 (setting [2]); in test [1]) were 18 nM and 184 nM, respectively.

Consider `CC(C)(NC(=O)c1cc2c(NC(=O)c3ccc(CN4CCCC4)cc3)n[nH]c2s1)c1cccc(F)c1` [Compound 50, 3-(4-Pyrrolidin-1-ylmethyl-benzoylamino)-1H-thieno[2,3-c]pyrazole-5-carboxylic acid [1-(3-fluoro-phenyl)-1-methyl-ethyl]-amide], for which the IC50 at Aurora-2 (setting [3]) was < 20 nM.

In the case of `CC(C)(NC(=O)c1cc2c(NC(=O)c3cccs3)n[nH]c2s1)c1ccccc1F` [Compound 123, 3-[(Thiophene-2-carbonyl)-amino]-1H-thieno[2,3-c]pyrazole-5-carboxylic acid [1-(2-fluoro-phenyl)-1-methyl-ethyl]-amide], the IC50 on Aurora-2 (setting [3]) is < 20 nM.

As for `CN1CCN(c2ccc(C(=O)Nc3n[nH]c4sc(C(=O)NC(C)(C)c5ccccc5F)cc34)cc2)CC1` [Compound 141, 3-[4-(4-Methyl-piperazin-1-yl)-benzoylamino]-1H-thieno[2,3-c]pyrazole-5-carboxylic acid[1-(2-fluoro-phenyl)-1-methyl-ethyl]amide], the IC50 on Aurora-2 (setting [3]) was < 20 nM.

On to `CN1CCN(c2ccc(C(=O)Nc3n[nH]c4sc(C(=O)NC(C)(C)c5ccc(F)cc5)cc34)cc2)CC1` [Compound 139, 3-[4-(4-Methyl-piperazin-1-yl)-benzoylamino]-1H-thieno[2,3-c]pyrazole-5-carboxylic acid [1-(4-fluoro-phenyl)-1-methyl-ethyl]amide], for which the IC50 at Aurora-2 (setting [3]) was < 20 nM.

Turning to `CN1CCN(c2ccc(C(=O)Nc3n[nH]c4sc(C(=O)NC(C)(C)c5cccc(F)c5)cc34)cc2)CC1` [Compound 142, 3-[4-(4-Methyl-piperazin-1-yl)-benzoylamino]-1H-thieno[2,3-c]pyrazole-5-carboxylic acid [1-(3-fluoro-phenyl)-1-methyl-ethyl]-amide], the IC50 on Aurora-2 (setting [3]) is < 20 nM.

On to `CN1CCN(c2ccc(C(=O)Nc3n[nH]c4sc(C(=O)N[C@H](CN5CCCC5)c5ccccc5)cc34)cc2)CC1` [Compound 32, 3-{[4-(4-methylpiperazin-1-yl)benzoyl]amino}-N-[(1S)-1-phenyl-2-pyrrolidin-1-ylethyl]-1H-thieno[2,3-c]pyrazole-5-carboxamide], for which the IC50 at Aurora-2 (setting [3]) was < 20 nM.

These data come from patent publication US8481584B2, “1H-thieno[2,3-c]pyrazole derivatives useful as kinase inhibitors” (Nerviano Medical Sciences S.R.L., priority 2004, dated 2013).
